Article PMC8087847, “Effects of self-assembled cell-penetrating peptides and their nano-complexes on ABCB1 expression and activity” (Iranian Journal of Basic Medical Sciences, 2021)
“Also recorded” adds a separate entry of the source. Where two headings read alike, the source gives them in different places. No end group written: not given here.

Legend:
A549 cells [1] = test system: A549 cells
Procedure: (§1) First, cells were seeded in 6-well plates (3×10^5 cells/well) and incubated for 24 hr. Then the medium was removed and cells were washed with PBS. FAM-labeled peptides and nano-complexes were added to wells and incubation was continued for 90 min. The old medium was removed and cells were washed with PBS three times and detached by trypsin/EDTA. Then 2 ml of medium was added to each well, and cells were centrifuged for 5 min, followed by washing three times with PBS and finally suspended in flow cytometry buffer to study the cellular uptake of FAM-labeled peptides and nano-complexes.

A549 Dox-resistant cells [2] = test system: A549 Dox-resistant cells
Procedure: (§2) A549 cell line is derived from a drug-resistant human lung carcinoma tissue and adherent in culture. […] It was cultured in RPMI-1640 medium supplemented with 10% FBS, 100 units/ml penicillin, and 100 µg/ml streptomycin at 37 °C in 5% CO2 a humidified atmosphere. Moreover, to develop resistance, 0.1 µM Dox was added to the medium which was not toxic to the cells.
(§3) Cells were detached from flasks by trypsin and seeded in 96-well plates with a cell density of 1.5×10^4 cells/well (containing 200 μl/well of medium) and incubated for 24 hr at 37 °C in a humidified atmosphere of 5% CO2. The next day, cells were treated with different concentrations of peptides (15, 25, 50 μM), and incubated at the same condition for 24 hr. […] Data were collected from at least 3 independent experiments performed in triplicates and analyzed using the Graphpad Prism 7 software package.

A549 Dox-resistant cells [3] = assay: MTT cell viability, effect of CPPs on Dox cytotoxicity
Procedure: as §2, §3

A549 cells [4] = assay: Cellular uptake of FAM-labeled peptides by flow cytometry; conditions: different concentrations, comparison stated in discussion
Procedure: as §1

Question: With KKKKKKKKKK [Peptide P8] as the molecule, how does the “cellular uptake (discussion, method not specified)” value (A549 cells [1]) read?
Answer: The value was “higher uptake compared with P8/E10 nano-complexes”.

Question: What about the “effect on Dox cytotoxicity” value (A549 Dox-resistant cells [2]) of the same molecule?
Answer: Its value is “increased Dox cytotoxicity”.

Question: And the cell viability (A549 Dox-resistant cells [3]; 15 µM peptide 24 hr pre-treatment, then 20 µM Dox, 24 hr, MTT, at least 3 independent experiments in triplicates)?
Answer: Its cell viability is 52.5%.

Question: For `COc1cccc2c1C(=O)c1c(O)c3c(c(O)c1C2=O)C[C@@](O)(C(=O)CO)C[C@@H]3O[C@H]1C[C@H](N)[C@H](O)[C@H](C)O1` [Dox, Doxorubicin, reference compound], which IC50 (A549 Dox-resistant cells [3]; Homo sapiens, A549, read-out: IC50 of Dox) is on record?
Answer: Its IC50 is 20 µM.

Question: With `N=C(N)NCCC[C@H](NC(=O)[C@H](CCCNC(=N)N)NC(=O)[C@H](CCCNC(=N)N)NC(=O)[C@H](CCCNC(=N)N)NC(=O)[C@H](CCCNC(=N)N)NC(=O)[C@H](CCCNC(=N)N)NC(=O)[C@H](CCCNC(=N)N)NC(=O)[C@H](CCCNC(=N)N)NC(=O)[C@H](CCCNC(=N)N)NC(=O)[C@@H](N)CCCNC(=N)N)C(=O)O` [Peptide P7] as the molecule, how does the “cellular uptake (discussion, method not specified)” value (A549 cells [4]) read?
Answer: Its value is “higher uptake efficacy”.

Question: What about the “effect on Dox cytotoxicity” value (A549 Dox-resistant cells [3]; 25 µM and 50 µM peptide, 20 µM Dox, 24 hr (Figure 3a), MTT) of the same molecule?
Answer: Its value is “resulted in Dox cytotoxicity; also recorded: increased the Dox toxicity”.

Question: What about the “effect on cytotoxicity of Dox” value (A549 Dox-resistant cells [3]; 50 µM peptide, 20 µM Dox, after 48 hr (Figure 3b), MTT) of the same molecule?
Answer: The value was “increased the cytotoxicity of Dox”.

Question: What about the “effect on Dox cytotoxicity” value (A549 Dox-resistant cells [3]; after 48 hr, peptide concentration not stated (abstract)) of the same molecule?
Answer: The value was “increased Dox cytotoxicity”.
